Source: patent publication US8906889B2, “C-3 cycloalkenyl triterpenoids with HIV maturation inhibitory activity” (priority 2012, dated 2014)

Tested on: recombinant NL4-3 virus (Renilla luciferase, Gag P373S)
Assay: HIV cell culture assay (luciferase reporter, MT-2 cells)
Assay type: cell-based
Conditions: Renilla, NL43, MT-2 cells infected for 4-5 days with NLRluc recombinants; luciferase activity
Summary of the method: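 MT-2 cells were infected for 4–5 days with NL4-3 carrying Renilla luciferase in place of part of nef and the Gag P373S change, in the presence of serially diluted inhibitor. Antiviral activity was quantified as luciferase signal from Dual Luciferase reagent.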

| Compound | EC50 [nM] |
| --- | --- |
| C=C(C)[C@@H]1CC[C@]2(NCCN3CCS(=O)(=O)CC3)CC[C@]3(C)[C@H](CC[C@@H]4[C@@]5(C)CC=C(C6=CCC(CC(=O)O)CC6)C(C)(C)[C@@H]5CC[C@]43C)[C@@H]12 (stereo partly drawn) [Example A25, 2-(4-((1R,3aS,5aR,5bR,7aR,11aS,11bR,13aR,13bR)-3a-((2-(1,1-dioxidothiomorpholino)ethyl)amino)-5a,5b,8,8,11a-pentamethyl-1-(prop-1-en-2-yl)-2,3,3a,4,5,5a,5b,6,7,7a,8,11,11a,11b,12,13,13a,13b-octadecahydro-1H-cyclopenta[a]chrysen-9-yl)cyclohex-3-en-1-yl)acetic acid] | 1.31 |
| C=C(C)[C@@H]1CC[C@]2(NCCN3CCS(=O)(=O)CC3)CC[C@]3(C)[C@H](CC[C@@H]4[C@@]5(C)CC=C(C6=CC=C(C(=O)O)CC6)C(C)(C)[C@@H]5CC[C@]43C)[C@@H]12 [Example A29, 4-((1R,3aS,5aR,5bR,7aR,11aS,11bR,13aR,13bR)-3a-((2-(1,1-dioxidothiomorpholino)ethyl)amino)-5a,5b,8,8,11a-pentamethyl-1-(prop-1-en-2-yl)-2,3,3a,4,5,5a,5b,6,7,7a,8,11,11a,11b,12,13,13a,13b-octadecahydro-1H-cyclopenta[a]chrysen-9-yl)cyclohexa-1,3-dienecarboxylic acid] | 1.37 |
| C=C(C)[C@@H]1CC[C@]2(NCCS(=O)(=O)c3ccccc3)CC[C@]3(C)[C@H](CC[C@@H]4[C@@]5(C)CC=C(C6=CC=C(C(=O)O)CC6)C(C)(C)[C@@H]5CC[C@]43C)[C@@H]12 [Example A30, 4-((1R,3aS,5aR,5bR,7aR,11aS,11bR,13aR,13bR)-5a,5b,8,8,11a-pentamethyl-3a-((2-(phenylsulfonyl)ethyl)amino)-1-(prop-1-en-2-yl)-2,3,3a,4,5,5a,5b,6,7,7a,8,11,11a,11b,12,13,13a,13b-octadecahydro-1H-cyclopenta[a]chrysen-9-yl)cyclohexa-1,3-dienecarboxylic acid] | 90 |
| C=C(C)[C@@H]1CC[C@]2(NCCN3CCS(=O)(=O)CC3)CC[C@]3(C)[C@H](CC[C@@H]4[C@@]5(C)CC=C(C6=CCC(NC(C)=O)(C(=O)O)CC6)C(C)(C)[C@@H]5CC[C@]43C)[C@@H]12 (stereo partly drawn) [Example A31, 1-acetamido-4-((1R,3aS,5aR,5bR,7aR,11aS,11bR,13aR,13bR)-3a-((2-(1,1-dioxidothiomorpholino)ethyl)amino)-5a,5b,8,8,11a-pentamethyl-1-(prop-1-en-2-yl)-2,3,3a,4,5,5a,5b,6,7,7a,8,11,11a,11b,12,13,13a,13b-octadecahydro-1H-cyclopenta[a]chrysen-9-yl)cyclohex-3-enecarboxylic acid] | 10 |
